Measurements taken from patent US20050142626A1, “Diagnostic methods for asthma” (priority 1999, published 2005).

Experiments:
[1] = tested on: eosinophil peroxidase-H2O2—Br− system; test: 3-Bromotyrosine formation in BSA incubated with activated phagocytes (eosinophils); type: cell-based; settings: BSA with phorbol ester activated cells, plasma levels of bromide
Procedure: Reactions were initiated by addition of oxidant (H2O2, HOBr, N-bromo or N,N-dibromo amine) and performed in sodium phosphate buffer (pH 7.0) at 37° C. for 60 min. Proteins oxidized in vitro were prepared for analysis by first precipitating and desalting them in a single-phase extraction mixture comprised of H2O:methanol:H2O-saturated diethyl ether (1:3:7, v:v:v) as described in Hazen, S. L., Hsu, F. F., Gaut, J. P., Crowler, J. R. and Heinecke, J. W. “Modification of Proteins and Lipids by Myeloperoxidase-Derived Oxidants” In: Methods of Enzymology, Edited by Lester Packer, Vol. 300, pp. 88-106. Academic Press, Inc., San Diego. 1999, followed by acid hydrolysis in methane sulfonic acid. […]
L-Tyrosine, 3-bromotyrosine and 3,5-dibromotyrosine generated by phagocytes and human tissues were quantified by stable isotope dilution GC/MS in the negative-ion chemical ionization mode. n-Propyl, per heptafluorobutyryl (HFB) derivatives of amino acids were prepared by standard methods and analyzed on a Perkin Elmer TurboMass mass spectrometer equipped with chemical ionization probe. […] 3-Bromotyrosine was monitored as its n-propyl per HFB derivative using two structurally informative fragment ions, m/z 573 (M-HF)^− and m/z 445 (M-CF3CF2CHO)^− and their corresponding isotopically labeled [^13C6] internal standard ions at m/z 579 and 451, respectively. […]

[2] = tested on: eosinophil peroxidase; test: Ring-bromination of L-tyrosine by isolated EPO at physiological levels of halides; type: biochemical; settings: molar excess in reaction mixtures
Procedure: Reactions were initiated by addition of oxidant (H2O2, HOBr, N-bromo or N,N-dibromo amine) and performed in sodium phosphate buffer (pH 7.0) at 37° C. for 60 min. Proteins oxidized in vitro were prepared for analysis by first precipitating and desalting them in a single-phase extraction mixture comprised of H2O:methanol:H2O-saturated diethyl ether (1:3:7, v:v:v) as described in Hazen, S. L., Hsu, F. F., Gaut, J. P., Crowler, J. R. and Heinecke, J. W. “Modification of Proteins and Lipids by Myeloperoxidase-Derived Oxidants” In: Methods of Enzymology, Edited by Lester Packer, Vol. 300, pp. 88-106. Academic Press, Inc., San Diego. 1999, followed by acid hydrolysis in methane sulfonic acid.
Quantitative determination of 3-bromotyrosine and 3,5-dibromotyrosine production from free L-tyrosine was performed utilizing reverse-phase HPLC with a C18 column (Beckman Ultrasphere, 5 μm resin, 4.6×250 mm) equilibrated with solvent A (0.1% trifluoroacetic acid, pH 2.5). […] 3-Bromotyrosine and 3,5-dibromotyrosine were monitored on a diode array detector and quantified at 280 nm employing a standard curve constructed with authentic synthetic standards.
The ability of isolated EPO and MPO to form 3-bromotyrosine and 3,5-dibromotyrosine in the presence of physiological levels of halides was evaluated. […]

[3] = Chemical stability of L-tyrosine oxidation products (Peaks I and II) of the EPO-H2O2-Br- system; settings: to acid, peroxide, reductants and nucleophilic compounds; prolonged incubation at 37° C. with H2O2

[N-]=[N+]=[N-].[Na+] [NaN3]
effect on 3-bromotyrosine production [1]: inhibited

catalase
effect on 3-bromotyrosine production [1]: inhibited

NCCS(=O)(=O)O [taurine]
effect on ring-bromination by EPO [2]: augmented

N[C@@H](Cc1cc(Br)c(O)c(Br)c1)C(=O)O (single isomer, unassigned) [3,5-dibromotyrosine]
chemical stability of the product [3]: stable
